Values after ≈ are worked out from the molar mass of the structure shown. Values belong to the molecule of their own block, whether it stands above or below them. Active and inactive are the calls of the source. The calls are words filed in the database; no cut-off is given here.
Experiments:
Klebsiella pneumoniae = assay: Antibacterial activity against Klebsiella pneumoniae ATCC […] after 18 hrs by microdilution broth method; format: functional
Escherichia coli [1] = assay: Bactericidal activity against Escherichia coli CCUG assessed as log reduction in CFU at 2 times MIC concentration after 1 hr by time kill assay; format: functional
Escherichia coli [2] = assay: Antibacterial activity against Escherichia coli CCUG after 24 hrs by microdilution broth method; format: functional
Pseudomonas aeruginosa [3] = assay: Antibacterial activity against Pseudomonas aeruginosa ATCC 27853 after 18 hrs by microdilution broth method; format: functional
Acinetobacter baumannii [4] = assay: Antibacterial activity against Acinetobacter baumannii ATCC 17978 after 18 hrs by microdilution broth method; format: functional
Escherichia coli [5] = assay: Disruption of Escherichia coli MG1655 ATCC 47076 outer membrane integrity assessed as induction of NPN uptake after 30 mins by NPN fluorescence-based assay; format: functional, organism-based; conditions: K-12 substr. MG1655 ATCC 47076
Bacillus spizizenii = assay: Antibacterial activity against Bacillus subtilis ATCC 6633 after 18 hrs by microdilution broth method; format: functional; conditions: ATCC 6633, 18 h
Acinetobacter baumannii [6] = assay: Disruption of Acinetobacter baumannii ATCC 19606 outer membrane integrity assessed as induction of NPN uptake after 30 mins by NPN fluorescence-based assay; format: functional, organism-based; conditions: ATCC 19606 = CIP 70.34 = JCM 6841
Escherichia coli [7] = assay: Disruption of inner membrane integrity in Escherichia coli MG1655 assessed as induction of […] conversion at 256 ug/ml measured at 10 mins intervals for 1 hr; format: functional, organism-based; conditions: K-12 substr. MG1655
[8] = Hemolytic activity against human erythrocytes assessed as induction of hemolysis at 64 ug/ml after 30 mins; format: cell-based, Erythrocyte; conditions: read-out: Activity
Pseudomonas aeruginosa [9] = assay: Disruption of inner membrane integrity in Pseudomonas aeruginosa PAO1 ATCC 15692 co-expressing pMP2200::PrrnB plasmid assessed as induction of OPNG conversion at 256 ug/ml measured at 10 mins intervals for 1 hr; format: functional, organism-based
Acinetobacter baumannii [10] = assay: Antibiofilm activity against Acinetobacter baumannii ATCC 19606 assessed as effect on biofilm 3D structures at half MIC concentration after 24 hrs by AO-staining based confocal microscopy; format: functional, organism-based; conditions: ATCC 19606 = CIP 70.34 = JCM 6841
Escherichia coli [11] = assay: Antibiofilm activity against Escherichia coli MG1655 ATCC 47076 assessed as effect on biofilm 3D structures at half MIC concentration after 24 hrs by AO-staining based confocal microscopy; format: functional, organism-based; conditions: K-12 substr. MG1655 ATCC 47076
Staphylococcus aureus = assay: Antibacterial activity against Staphylococcus aureus ATCC 25923 after 18 hrs by microdilution broth method; format: functional; conditions: ATCC 25923, 18 h
Pseudomonas aeruginosa [12] = assay: Antibiofilm activity against Pseudomonas aeruginosa PAO1 ATCC 15692 at half MIC concentration after 24 hrs by crystal violet-based assay; format: functional, organism-based
Pseudomonas aeruginosa [13] = assay: Antibiofilm activity against Pseudomonas aeruginosa PAO1 ATCC 15692 assessed as effect on biofilm 3D structures at half MIC concentration after 24 hrs by AO-staining based confocal microscopy; format: functional, organism-based
Pseudomonas aeruginosa [14] = assay: Disruption of Pseudomonas aeruginosa PAO1 ATCC 15692 outer membrane integrity assessed as induction of NPN uptake after 30 mins by NPN fluorescence-based assay; format: functional, organism-based
Acinetobacter baumannii [15] = assay: Antibiofilm activity against Acinetobacter baumannii ATCC 19606 at half MIC concentration after 24 hrs by crystal violet-based assay; format: functional, organism-based; conditions: ATCC 19606 = CIP 70.34 = JCM 6841
Enterococcus faecalis = assay: Antibacterial activity against Enterococcus faecalis ATCC 19433 after 18 hrs by microdilution broth method; format: functional; conditions: ATCC 19433, 18 h
Escherichia coli [16] = assay: Antibiofilm activity against Escherichia coli MG1655 ATCC 47076 at half MIC concentration after 24 hrs by crystal violet-based assay; format: functional, organism-based; conditions: K-12 substr. MG1655 ATCC 47076
Streptococcus pyogenes = assay: Antibacterial activity against Streptococcus pyogenes ATCC 12344 after 18 hrs by microdilution broth method; format: functional; conditions: ATCC 12344, 18 h
Acinetobacter baumannii [17] = assay: Disruption of inner membrane integrity in Acinetobacter baumannii ATCC 19606 co-expressing pMP2200::PrrnB plasmid assessed as induction of […] conversion at 256 ug/ml measured at 10 mins intervals for 1 hr; format: functional, organism-based; conditions: ATCC 19606 = CIP 70.34 = JCM 6841
Escherichia coli [18] = assay: Antibacterial activity against Escherichia coli CCUG after 18 hrs by microdilution broth method
in vitro = conditions: human, Caco-2
Description: Efflux ratio of apparent permeability in human Caco2 cells at 10 uM after 120 mins by LC-MS/MS analysis

Molecule: COLISTIN
MIC (Klebsiella pneumoniae): 0.5 µg/mL
Activity (Escherichia coli [1]): Active
MIC (Escherichia coli [2]): 0.5 µg/mL
MIC (Pseudomonas aeruginosa [3]): 0.5 µg/mL
MIC (Acinetobacter baumannii [4]): 1 µg/mL

MIC (Bacillus spizizenii): 32 µg/mL (≈ 43.4 µM)
MIC (Klebsiella pneumoniae): 32 µg/mL (≈ 43.4 µM)
MIC (Staphylococcus aureus): 2 µg/mL (≈ 2.71 µM)
MIC (Pseudomonas aeruginosa [3]; ATCC 27853, 18 h): 32 µg/mL (≈ 43.4 µM)
MIC (Enterococcus faecalis): 2 µg/mL (≈ 2.71 µM)
MIC (Streptococcus pyogenes): 1 µg/mL (≈ 1.36 µM)
MIC (Acinetobacter baumannii [4]; ATCC 17978, 18 h): 16 µg/mL (≈ 21.7 µM)
MIC (Escherichia coli [18]): 4 µg/mL (≈ 5.43 µM)
Molecule: N=C(N)NCCCCCCCCN(CCCCCCCCNC(=N)N)C(=O)N(CCCCCCCCNC(=N)N)CCCCCCCCNC(=N)N
Activity (Escherichia coli [5]): Dose-dependent effect
Activity (Acinetobacter baumannii [6]): Dose-dependent effect
Activity (Escherichia coli [7]): inactive
hemolysis at 0.5 h, 64 ug/ml [8]: 0 to 7%
Activity (Pseudomonas aeruginosa [9]): inactive
Activity (Acinetobacter baumannii [10]): inactive
Activity (Escherichia coli [11]): inactive
Activity (Pseudomonas aeruginosa [12]): inactive
Activity (Pseudomonas aeruginosa [13]): inactive
Activity (Pseudomonas aeruginosa [14]): Dose-dependent effect
Activity (Acinetobacter baumannii [15]): inactive
Activity (Escherichia coli [16]): inactive
Activity (Acinetobacter baumannii [17]): inactive

efflux ratio at 2 h, 10 µM (in vitro): 0.4
Molecule: CC(C)NCC(O)COc1cccc2ccccc12 (configuration not stated) [PROPRANOLOL]

Reference: ChEMBL document CHEMBL4308851, “Alkyl-guanidine Compounds as Potent Broad-Spectrum Antibacterial Agents: Chemical Library Extension and Biological Characterization” (J Med Chem, 2018)
